In US9505775B2, “Inhibitors of cytomegalovirus” (Boehringer Ingelheim International GmbH, priority 2012, dated 2016) one finds IC50 data, which are given here for 54 molecules.

For orientation: IC50 means the midpoint of a concentration-inhibition curve.

This assay addresses T1, purified recombinant HCMV polymerase from strain AD169 (UL54) (Human cytomegalovirus, UniProt P08546).
T1 construct: made in house; host or cells: Sf21 insect cells (baculovirus)
Briefly: HCMV Polymerase LANCE TR-FRET Assay. The conditions noted are these: 2 nM GST-UL54, 37° C. for 30 min; read-out: IC50 (nM) Example B. In kind it is biochemical. As to the method: This non-radiometric assay determines the enzymatic activity of purified recombinant HCMV polymerase from strain AD169 (UL54) using a Digoxigenin-labeled oligonucleotide priming a heteropolymeric template. The enzymatic activity is determined by incorporating Biotin-dUTP in the nascent complementary strand. The signal is generated by Fluorescence Resonance Energy Transfer from the donor (Anti-Digoxigenin-Europium Chelate binding with the primer) to the acceptor Streptavidin-AlloPhycoCyanin (SA-APC) binding to the biotin of the labeled nucleotides incorporated in proximity.
Serial dilutions of the DMSO stock compound solution are performed using DMSO in columns 2-11 and 14-23. DMSO alone is present in columns 1, 12, 13 and 24. Three μL of the DMSO serial dilutions is transferred and diluted using 21 μL of compound dilution buffer (10 mM Hepes pH 7.5, 25 mM KCl, 5 mM MgCl2, 1 mM TCEP) to obtain 12.5% DMSO. 4 μL per well of the 12.5% DMSO serial dilution compound solution is added to the assay plate. The plate is centrifuged at 200×g for 30 sec.
The assay conditions are the following: 10 mM HEPES pH 7.5, 25 mM KCl, 7.5 mM NaCl, 5 mM MgCl2, 0.2 mg BSA/mL, 1 mM TCEP, 1.5% glycerol, 5% DMSO, 235 nM dATP, 350 nM dCTP, 350 nM dGTP, 235 nM dTTP, 12 nM biotin-16-dUTP, 23.5 nM Dig-primer/template, 2 nM GST-UL54. The assay volume is 10 μL. […] The primer and template are annealed in 10 mM Tris-HCl pH 7.5, 50 mM NaCl at a respective concentration of 50 μM. They are incubated at 95° C. for 5 min in a dry batch block. The block is removed from the dry bath and allowed to cool to RT. Aliquots are made and stored at −20° C.
To perform the assay, 3 μL of the enzyme solution is added to columns 2-12 and 14-24. The enzyme is substituted by the blank solution (b solution without enzyme) for columns 1 and 13 (blanks). The plate is centrifuged at 200×g for 30 sec. 3 μL of substrate solution is added to each well. The plate is centrifuged at 200×g for 30 sec. Plates are incubated at 37° C. for 30 min. 5 μL of conjugate solution is added (25 mM Hepes pH 7.5, 0.1 M NaCl, 0.25% Tween-20, 1 mg/mL BSA, 12 mM EDTA, 24 nM Sreptavidin-APC, 342 ng/mL Anti-Dig-Europium). The plates are incubated at RT for at least 120 min. The signal is read on the Envision plate reader (Perkin-Elmer) or equivalent.
A general note: Time-resolved FRET reads energy transfer from a long-lived donor to a nearby acceptor.

T1 sequence (P08546 whole entry): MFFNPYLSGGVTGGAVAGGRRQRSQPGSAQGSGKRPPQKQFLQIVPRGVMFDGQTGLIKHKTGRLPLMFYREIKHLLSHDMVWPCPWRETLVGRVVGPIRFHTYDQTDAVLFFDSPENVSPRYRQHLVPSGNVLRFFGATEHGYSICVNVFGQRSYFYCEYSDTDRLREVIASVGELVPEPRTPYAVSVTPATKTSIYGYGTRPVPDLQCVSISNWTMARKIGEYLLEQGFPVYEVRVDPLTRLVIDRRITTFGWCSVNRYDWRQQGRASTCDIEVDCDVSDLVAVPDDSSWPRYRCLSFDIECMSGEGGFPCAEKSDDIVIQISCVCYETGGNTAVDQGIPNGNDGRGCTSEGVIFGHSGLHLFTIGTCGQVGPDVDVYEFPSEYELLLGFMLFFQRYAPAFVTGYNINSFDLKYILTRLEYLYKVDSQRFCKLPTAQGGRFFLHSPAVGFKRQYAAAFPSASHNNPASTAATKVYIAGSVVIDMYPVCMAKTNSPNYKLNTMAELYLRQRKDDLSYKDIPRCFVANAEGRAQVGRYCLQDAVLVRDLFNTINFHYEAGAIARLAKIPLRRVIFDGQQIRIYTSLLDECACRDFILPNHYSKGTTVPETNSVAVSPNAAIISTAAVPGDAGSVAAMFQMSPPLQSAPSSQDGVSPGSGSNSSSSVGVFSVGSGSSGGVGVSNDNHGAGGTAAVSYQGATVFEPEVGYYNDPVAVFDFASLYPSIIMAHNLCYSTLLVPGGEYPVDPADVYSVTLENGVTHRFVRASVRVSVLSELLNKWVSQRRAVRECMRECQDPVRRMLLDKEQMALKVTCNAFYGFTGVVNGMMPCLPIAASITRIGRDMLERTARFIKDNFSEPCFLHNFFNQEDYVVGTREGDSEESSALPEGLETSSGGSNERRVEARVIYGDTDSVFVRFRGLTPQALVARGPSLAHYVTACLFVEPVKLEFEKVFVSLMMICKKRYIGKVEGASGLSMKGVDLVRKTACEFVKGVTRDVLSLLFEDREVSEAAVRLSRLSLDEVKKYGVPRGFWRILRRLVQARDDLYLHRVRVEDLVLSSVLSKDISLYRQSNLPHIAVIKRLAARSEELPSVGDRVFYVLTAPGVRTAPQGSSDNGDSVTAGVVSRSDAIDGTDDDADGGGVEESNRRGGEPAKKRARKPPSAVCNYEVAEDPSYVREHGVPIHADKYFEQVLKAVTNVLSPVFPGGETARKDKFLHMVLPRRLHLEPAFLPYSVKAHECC

Take `CC(c1ccc2c(c1)C(C)(C)CN2C(=O)[C@H]1CC(=O)N(c2cccc(C#N)c2)C1)n1ccnc1` (mixture of isomers) [11rr1]: the IC50 was determined as 350 nM.

Turning to `CC1CN(C(=O)[C@H]2CC(=O)N(c3cccc(C#N)c3)C2)c2ccc(CCn3ccnc3)cc21` (single isomer, unassigned) [11aa1], the IC50 is 100 nM.

In the case of `CC1CN(C(=O)[C@H]2CC(=O)N(c3cccc(C#N)c3)C2)c2ccc(CCc3cncnc3)cc21` (single isomer, unassigned) [11dd1], the IC50 worked out at 71 nM.

For the molecule `CC1CN(C(=O)[C@H]2CC(=O)N(c3cccc(Cl)c3)C2)c2ccc(CCn3ccnc3)cc21` (single isomer, unassigned) [11ee1], the IC50 is 63 nM.

For the molecule `CC1CN(C(=O)[C@H]2CC(=O)N(c3cccc(Cl)c3)C2)c2ccc(CCc3cncnc3)cc21` (single isomer, unassigned) [11hh1], the IC50 was found to be 150 nM.

For the molecule `Cn1cncc1CCc1ccc2c(c1)C(C)(CO)CN2C(=O)[C@H]1CC(=O)N(c2cccc(Cl)c2)C1` (single isomer, unassigned) [11oo1], the IC50 is 1600 nM.

On to `Cc1ncc(Cc2ccc3c(c2)C(C)(CO)CN3C(=O)[C@H]2CC(=O)N(c3cccc(Cl)c3)C2)o1` (single isomer, unassigned) [11qq1], for which the IC50 came out at 750 nM.

As to `Cc1nccn1Cc1ccc2c(c1)C(C)CN2C(=O)[C@H]1CC(=O)N(c2cccc(C#N)c2)C1` (single isomer, unassigned) [13o1], the IC50 is 3200 nM.

With `CC(=O)N1CCC2(CC1)CN(C(=O)[C@H]1CC(=O)N(c3cccc(C#N)c3)C1)c1ccc(CN3CCOCC3)cc12` [11a1], the IC50 turned out to be 580 nM.

As for `CC1(C)CN(C(=O)[C@H]2CC(=O)N(c3cccc(C#N)c3)C2)c2ccc(CCc3ccccn3)cc21` [11bbb1], the half-inhibitory concentration (IC50) was 310 nM.

For `CC1(C)CN(C(=O)[C@H]2CC(=O)N(c3cccc(C#N)c3)C2)c2ccc(CCc3cccc(O)c3)cc21` [11ccc1], the IC50 stood at 87 nM.

For the molecule `CC1(C)CN(C(=O)[C@H]2CC(=O)N(c3cccc(C#N)c3)C2)c2ccc(CCc3cncc(N)c3)cc21` [11ddd1], the IC50 was 38 nM.

As to `CC1(C)CN(C(=O)[C@H]2CC(=O)N(c3cccc(C#N)c3)C2)c2ccc(CCn3ccnc3)cc21` [11e1], the IC50 was 240 nM.

For `CC1(C)CN(C(=O)[C@H]2CC(=O)N(c3cccc(C#N)c3)C2)c2ccc(CCc3cncnc3)cc21` [11f1], the IC50 is 95 nM.

Regarding `CC1(C)CN(C(=O)[C@H]2CC(=O)N(c3cccc(Cl)c3)C2)c2ccc(CCn3ccnc3)cc21` [11g1], the IC50 stood at 200 nM.

Take `CC1(C)CN(C(=O)[C@H]2CC(=O)N(c3cccc(Cl)c3)C2)c2ccc(CCc3cncnc3)cc21` [11h1]: the 50% inhibitory concentration (IC50) worked out at 94 nM.

`Cc1cc2c(cc1Cn1ccnc1C)C(C)(C)CN2C(=O)[C@H]1CC(=O)N(c2cccc(C#N)c2)C1` [11q1]: the IC50 is 49 nM.

`Cc1c(Cn2ccnc2C)ccc2c1C(C)(C)CN2C(=O)[C@H]1CC(=O)N(c2cccc(C#N)c2)C1` [11r1]: the IC50 was found to be 480 nM.

As to `Cc1nccn1Cc1cc2c(cc1C(F)(F)F)N(C(=O)[C@H]1CC(=O)N(c3cccc(C#N)c3)C1)CC2(C)C` [11s1], the IC50 was 590 nM.

Regarding `Cc1ccc(CCc2ccc3c(c2)C(C)(C)CN3C(=O)[C@H]2CC(=O)N(c3cccc(C#N)c3)C2)cn1` [11ss1], the IC50 was 130 nM.

With `CC1(C)CN(C(=O)[C@H]2CC(=O)N(c3cccc(C#N)c3)C2)c2ccc(CCc3cncc(C#N)c3)cc21` [11t1], the IC50 turned out to be 370 nM.

Regarding `Cn1cc(CCc2ccc3c(c2)C(C)(C)CN3C(=O)[C@H]2CC(=O)N(c3cccc(C#N)c3)C2)cn1` [11v1], the IC50 stood at 510 nM.

Regarding `CC1(C)CN(C(=O)[C@H]2CC(=O)N(c3cccc(C#N)c3)C2)c2ccc(Cn3cnnc3)cc21` [11vv1], the concentration for half-maximal inhibition (IC50) is 160 nM.

With `CC1(C)CN(C(=O)[C@H]2CC(=O)N(c3cccc(C#N)c3)C2)c2ccc(CCn3cncn3)cc21` [11zz1], the IC50 came out at 99 nM.

Regarding `N#Cc1cccc(N2C[C@@H](C(=O)N3CCc4cc(Cn5ccnc5)ccc43)CC2=O)c1` [13a1], the IC50 stood at 150 nM.

Regarding `CC1(C)CN(C(=O)[C@H]2CC(=O)N(c3cccc(Cl)c3)C2)c2ccc(Cn3ccnc3)cc21` [13d1], the IC50 amounted to 110 nM.

As to `Cc1nccn1Cc1cc2c(cc1F)N(C(=O)[C@H]1CC(=O)N(c3cccc(C#N)c3)C1)CC2(C)C` [13f1], the IC50 was found to be 140 nM.

As to `Cc1nccn1Cc1ccc2c(c1F)C(C)(C)CN2C(=O)[C@H]1CC(=O)N(c2cccc(C#N)c2)C1` [13g1], the IC50 was found to be 2100 nM.

Take `CC1(C)CN(C(=O)C2CC(=O)N(c3cccc(C#N)c3)C2)c2cc(Cl)c(Cn3cnnc3)cc21` (stereo not drawn) [13l1]: the IC50 was 230 nM.

On to `N#Cc1cccc(N2C[C@@H](C(=O)N3CC4(CC4)c4cc(Cn5ccnc5)ccc43)CC2=O)c1` [13r1], for which the IC50 is 360 nM.

For the molecule `N#Cc1cccc(N2C[C@@H](C(=O)N3CC4(CCOCC4)c4cc(Cn5ccnc5)ccc43)CC2=O)c1` [13t1], the half-inhibitory concentration (IC50) amounted to 730 nM.

Take `CC(=O)N1CCC2(CC1)CN(C(=O)[C@H]1CC(=O)N(c3cccc(C#N)c3)C1)c1ccc(Cn3ccnc3C)cc12` [13v1]: the IC50 came to 1600 nM.

For `CC1(C)CN(C(=O)C2CC(=O)N(c3cccc(C#N)c3)C2)c2ccc(COc3cncnc3)cc21` (stereo not drawn) [13w1], the IC50 was 840 nM.

On to `Cc1nccn1Cc1cc2c(cc1Cl)N(C(=O)[C@H]1CC(=O)N(c3cccc(C#N)c3)C1)CC2(C)C` [13x1], for which the IC50 was determined as 50 nM.

For `CC(C)n1cnnc1CN(C)Cc1ccc2c(c1)CCN2C(=O)C1CC(=O)N(c2cccc(C#N)c2)C1` (stereo not drawn) [16c3], the IC50 was found to be 600 nM.

Turning to `CC1(C)CN(C(=O)[C@H]2CC(=O)N(c3cccc(C#N)c3)C2)c2cc(Cl)c(CCn3ccnc3)cc21` [17b1], the half-inhibitory concentration (IC50) turned out to be 330 nM.

As to `N#Cc1cccc(N2C[C@@H](C(=O)N3CCc4nc(CCn5ccnc5)ccc43)CC2=O)c1` [17n1], the IC50 came to 540 nM.

For the molecule `CNc1ncc(CCc2ccc3c(c2)C(C)(C)CN3C(=O)[C@H]2CC(=O)N(c3cccc(C#N)c3)C2)cn1` [17o1], the 50% inhibitory concentration (IC50) is 240 nM.

With `CC1(C)CN(C(=O)[C@H]2CC(=O)N(c3cccc(C#N)c3)C2)c2ccc(CCc3ccccc3)cc21` [19b2], the IC50 is 990 nM.

Consider `Cn1cncc1CCc1ccc2c(c1)C(C)(C)CN2C(=O)[C@H]1CC(=O)N(c2cccc(C#N)c2)C1` [19c2], for which the concentration for half-maximal inhibition (IC50) came to 420 nM.

As for `CC1(C)CN(C(=O)[C@H]2CC(=O)N(c3cccc(C#N)c3)C2)c2ccc(Cc3cnoc3)cc21` [22a2], the IC50 amounted to 260 nM.

Regarding `Cc1noc(C)c1Cc1ccc2c(c1)C(C)(C)CN2C(=O)[C@H]1CC(=O)N(c2cccc(C#N)c2)C1` [22bb1], the IC50 is 350 nM.

Consider `Cc1oncc1Cc1ccc2c(c1)CCN2C(=O)[C@H]1CC(=O)N(c2cccc(C#N)c2)C1` [22dd1], for which the IC50 was 290 nM.

For the molecule `Cn1cncc1Cc1ccc2c(c1)CCN2C(=O)[C@H]1CC(=O)N(c2cccc(C#N)c2)C1` [22j1], the IC50 worked out at 480 nM.

Take `CC1(C)CN(C(=O)[C@H]2CC(=O)N(c3cccc(C#N)c3)C2)c2ccc(Cc3cncnc3)cc21` [22l1.2]: the IC50 amounted to 380 nM.

On to `CC1(C)CN(C(=O)[C@H]2CC(=O)N(c3cccc(C#N)c3)C2)c2ccc(Cc3ccncc3)cc21` [22o1], for which the half-inhibitory concentration (IC50) is 2900 nM.

Turning to `Cc1ncc(Cc2ccc3c(c2)C(C)(C)CN3C(=O)C2CC(=O)N(c3cccc(C#N)c3)C2)o1` (stereo not drawn) [22s1], the IC50 was 550 nM.

On to `N#Cc1cccc(N2C[C@@H](C(=O)N3CC4(CC4)c4cc(Cc5cncnc5)ccc43)CC2=O)c1` [22u1], for which the IC50 turned out to be 570 nM.

On to `Cc1ncc(Cc2ccc3c(c2)C2(CC2)CN3C(=O)[C@H]2CC(=O)N(c3cccc(C#N)c3)C2)o1` [22v1], for which the IC50 came out at 790 nM.

With `Cc1ncc(Cc2ccc3c(c2)C(C)(C)CN3C(=O)[C@H]2CC(=O)N(c3cccc(C#N)c3)C2)o1` [22w1], the IC50 was found to be 470 nM.

With `CC(=O)N1CCC2(CC1)CN(C(=O)[C@H]1CC(=O)N(c3cccc(C#N)c3)C1)c1ccc(Cc3cncnc3)cc12` [22z1], the IC50 is 1300 nM.

On to `CC1(C)CN(C(=O)[C@H]2CC(=O)N(c3cccc(C#N)c3)C2)c2ccc(Cn3ccnc3CC(=O)O)cc21` [24a1], for which the IC50 was determined as 690 nM.

For `CC1(C)CN(C(=O)[C@H]2CC(=O)N(c3cccc(C#N)c3)C2)c2ccc(Cn3cncc3C(=O)O)cc21` [24d1], the IC50 stood at 550 nM.

Consider `CC1(C)CN(C(=O)[C@H]2CC(=O)N(c3cccc(C#N)c3)C2)c2ccc(CNc3cncnc3)cc21` [31a1], for which the IC50 turned out to be 86 nM.
